The values that follow come from patent US20170107531A1, “ISOLATED NUCLEIC ACIDS AND QU[…] LOCI (QTL) FROM S. HA[…] METHODS OF USE THEREOF FOR […] BACTERIAL SPECK DISEASE IN TOMATO AND OTHER PLANTS” (Boyce Thompson Institute, priority 2015, published 2017).

In assay [1] the test system is Solyc02g072470 transcript abundance. Briefly: Solyc02g072470 transcript abundance in leaves after MAMP treatment (qRT-PCR), LA2109. In kind it is in vivo, Solanum habrochaites accession LA2109. As for the experimental part:
(§1) Two lateral leaflets on the second leaf of 3-week old tomato plants were syringe-infiltrated with 1 uM FlgII-28 ([…]) (SEQ ID NO. 1) (Cal, et al., 2011) or 10 uM Csp22 ([…]) (SEQ ID NO. 2) (Felix and Boller, 2003) and harvested 6 hrs later. Tissue samples were immediately frozen in liquid nitrogen and kept at −80° C. until use. Six-week-old plants were inoculated with 10^5 colony-forming units (CFU)/mL P. syringae pv. tomato T1 by vacuum infiltration for the visual monitoring of disease symptoms and 10^4 CFU/mL for the measurement of bacterial populations. For each replicate, three leaf discs were collected and combined; each experiment involved replicates from three independent plants.
(§2) Leaf tissue was ground in liquid nitrogen and total RNA was extracted with TRIzol reagent following the manufacturer's instructions (Life Technologies, cat. #15596-018). The concentration of total RNA was determined with a Nanodrop spectrophotometer (Thermo Scientific Co.). RNA (lug) was treated with TURBO DNA-free™ Kit (Life Technologies, cat. AM1907M) and tested for DNA contamination by amplifying SlCBL1 (Solyc12g015870) for 25 cycles; no PCR product was detected. The RNA was then used for reverse transcription PCR (RT-PCR). […] 1 μl and 0.4 μl of cDNA templates were used for RT-PCR and quantitative-RT-PCR (qRT-PCR), respectively. […]
Background: Quantitative PCR measures a nucleic acid by following its amplification.

Assay [2] relates to reactive oxygen species (ROS) in LA2109. The following applies: Veluchamy et al., 2014; cited from earlier work.
The subject of assay [3] is Solyc02g072470 transcript abundance. Briefly: Solyc02g072470 transcript abundance in leaves after MAMP treatment (qRT-PCR), RG-PtoS. Type of assay: in vivo, tomato (Rio Grande RG-PtoS). As for the experimental part:
as §1, §2

Assay [4] deals with reactive oxygen species (ROS) in LA2109. The assay can be described thus: Reactive oxygen species (ROS) elicitation by MAMP peptides, luminescence-based assay. In kind it is cell-based, Solanum habrochaites accession LA2109. The following applies: for PTI-eliciting activity of synthetic peptide: FIG. 2D, FIGS. 3C-E, also Cai et al., 2011; for ROS elicitation (relative light units): LA2109, FIG. 3C. As to the method:
FIG. 3A-FIG. 3E. […] (FIG. 3A) Bacterial speck disease on leaves of LA2109 four days after inoculation with Pst19 or Pst19ΔavrPtoB. (FIG. 3B) Bacterial populations of Pst19 and Pst19ΔavrPtoB in leaves of LA2109. Error bars indicate standard deviation. Testing the possible response of LA2109 to FlgII-28, effector HopAO1, and coronatine. […] ROS was measured as relative light units using a luminescence-based assay. […] Strain NY-T1 was included as a virulent control. All strains were inoculated at 2×10^5 CFU/mL. (FIG. 3E) Coronatine (1.25 nM) was syringe-infiltrated into leaves of LA2109 and Moneymaker (red arrows). Leaves of LA2109 were not observably more sensitive to this phytotoxin.

Where [5] appears, read: 10 uM Csp22, 6 hours after treatment.
The mark [6] stands for this setting: 1 uM FlgII-28, 6 hours after treatment, vs 10 mM MgCl2 mock.

In the case of AVGTVKWFNAEKGFGFITPDDG (Csp22), the figures for the “Effect on Solyc02g072470 transcript abundance” value in assay [1] (setting [5]) and in assay [3] (setting [5]) were “significantly induced” and “no effect”, respectively. In assay [2], the “ROS response to Csp22, LA2109 compared to RG-PtoS” value was “higher ROS response”.
Regarding ESTNILQRMRELAVQSRNDSNSATDREA (FlgII-28), the entries for the “Increase of Solyc02g072470 transcript abundance” value in assay [1] (setting [6]) and in assay [3] (setting [6]) were 1.5 fold and 4 fold, respectively.
As for “FlgII-28 from DC3000: synthetic peptide of the FlgII-28 region of Pst strain DC3000 flagellin (SEQ ID NO: 77) (QTMAIKNANDGMSLAQTAEGALQESTNILQRMRELAVQSRNDSNSATDREALNKEFTAMS; FlgII-28 region)”, in assay [4], the “PTI-eliciting activity of synthetic peptide” value is listed as “fully active” and the “ROS elicitation (relative light units)” value is given as “same level”.
As for “FlgII-28 from NY-T1: FlgII-28 region of NY-T1 flagellin, phenylalanine at position 16 instead of serine (SEQ ID NO: 76) (QTMAIKNANDGMSLAQTAEGALQESTNILQRMRELAVQFRNDSNSSTDRDALNKEFTAMS; FlgII-28 region)”, the “ROS elicitation (relative light units)” value in assay [4] was “inactive”.
Regarding “FlgII-28 from T1: synthetic peptide of the FlgII-28 region of Pst strain T1 flagellin (SEQ ID NO: 75) (QTMAIKNANDGMSLAQTAEGALQESTNILQRMRELAVQSRNDSNSSTDRDALNKEFTAMS; FlgII-28 region)”, in assay [4], the “PTI-eliciting activity of synthetic peptide” value is “fully active” and the “ROS elicitation (relative light units)” value is “same level”.
